Measurements as given in article PMC3947011 (ACS chemical biology, 2013).
Like-named read-outs stand apart in the source and are kept apart here.

Columns and labels:
Assay type in all cases: cell-based
[1] = tested on: K. pneumoniae (ATCC 13383)
[2] = tested on: Methicillin-resistant S. aureus (ATCC 33591)
[3] = tested on: Methicillin-resistant S. epidermidis (RP62A)
[4] = tested on: Vancomycin-resistant E. faecalis (ATCC 700802)
E. coli (ATCC 25922) = tested on: E. coli (ATCC 25922)
[5] = tested on: P. aeruginosa (ATCC 27853)

Pexiganan
MIC K. pneumoniae ([1]; 24 h): 8 µg/mL
MIC K. pneumoniae ([1]; value in parentheses): 3 µM
MIC S. aureus ([2]; 24 h): 16 µg/mL
MIC S. aureus ([2]; value in parentheses): 6 µM
MIC S. epidermidis ([3]; 24 h): 8 µg/mL
MIC S. epidermidis ([3]; value in parentheses): 3 µM
MIC E. faecalis ([4]; 24 h): 32 µg/mL
MIC E. faecalis ([4]; value in parentheses): 12 µM
MIC E. coli (E. coli (ATCC 25922); complete growth inhibition after 24 h, highest tested 25 μg/mL): 8 µg/mL
MIC E. coli (E. coli (ATCC 25922); value in parentheses): 3 µM
MIC P. aeruginosa ([5]; 24 h): 16 µg/mL
MIC P. aeruginosa ([5]; value in parentheses): 6 µM
